Experimental data from patent publication US20020137929A1, “1 - (3-heterocyclylphenyl) isothiourea, -isourea, -guanidine and -amidine herbicidal agents” (Intellectual Property Department, BASF Aktiengesellschaft, priority 1998, published 2002).

What was measured:
[1] = tested on: CASOB (Sicklepod); experiment: Postemergence herbicidal evaluation; format: in vivo, Cassia obtusifolia; conditions: postemergence
Summary of the method: (§1)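 ~2-wk seedlings; postemergence spray, 40 psi; vehicle 1:1 acetone:water + 0.5% Tween 20; rate ≈0.0156–0.500 kg/ha; greenhouse hold; scored 4–5 wk after treatment, 0–9 scale vs control; repeat tests averaged.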

[2] = tested on: GALAP (Galium); experiment: Postemergence herbicidal evaluation; format: in vivo, Galium aparine; conditions: postemergence
Summary of the method: as §1

[3] = tested on: MOOVA (Monochoria); experiment: Preemergence weed control under flooded paddy conditions; format: in vivo, Monochoria vaginalis; conditions: rated 3-4 weeks after treatment
Summary of the method: (§2)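 Ratings on a 0-9 visual scale cover stand, vigor, malformation, size, chlorosis and overall appearance relative to a control, taken three to four weeks post-treatment. Application was into flood water over freshly sown silt loam at roughly 0.0313 to 0.500 kg/ha.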

[4] = tested on: GLXMAW (Soybean, Williams); experiment: Preemergence herbicidal evaluation; format: in vivo, Glycine max, (L.) Merr. cv Williams; conditions: rated 4-5 weeks after treatment
Summary of the method: (§3)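 Greenhouse preemergence test: seed-soil mix sown on ~1 inch soil; aqueous acetone spray at equivalent of ~0.0156–0.500 kg/ha; greenhouse-held and watered; scored 0–9 visually at 4–5 weeks.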

[5] = tested on: CYPIR (Rice Flatsedge); experiment: Postemergence weed control under flooded paddy conditions; format: in vivo, Cyperus iria; conditions: postemergence weeds, 3-4 weeks after treatment
Summary of the method: (§4)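 Weeds 3 to 5 cm tall and rice seedlings at the 1.5 to 2.5 leaf stage were flooded, with water held 1.5 to 3 cm above the soil. Compounds in 50/50 v/v aqueous/acetone went into the flood water at about 0.0313 to 0.500 kg/ha. Visual 0-9 ratings versus control were made 3 to 4 weeks later.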

[6] = tested on: ORYSAT (Rice, Tebonnet); experiment: Preemergence herbicidal evaluation; format: in vivo, Oryza sativa, (L.) Tebonnet; conditions: rated 4-5 weeks after treatment
Summary of the method: as §3

[7] = tested on: AMBEL (Ragweed, Common); experiment: Preemergence herbicidal evaluation; format: in vivo, Ambrosia artemisifolia; conditions: rated 4-5 weeks after treatment
Summary of the method: as §3

[8] = tested on: CYPSE (Flatsedge); experiment: Postemergence weed control under flooded paddy conditions; format: in vivo, Cyperus serotinus; conditions: postemergence weeds, 3-4 weeks after treatment
Summary of the method: as §4

[9] = tested on: SETVI (Foxtail, Green); experiment: Preemergence herbicidal evaluation; format: in vivo, Setaria viridis; conditions: rated 4-5 weeks after treatment
Summary of the method: as §3

[10] = tested on: ZEAMX (Corn, Field); experiment: Postemergence herbicidal evaluation; format: in vivo, Zea mays; conditions: postemergence
Summary of the method: as §1

[11] = tested on: SAGPY (Arrowhead (Pygmaea)); experiment: Postemergence weed control under flooded paddy conditions; format: in vivo, Sagittaria pygmaea; conditions: postemergence weeds, 3-4 weeks after treatment
Summary of the method: as §4

[12] = tested on: CHEAL (Lambsquarters, Common); experiment: Postemergence herbicidal evaluation; format: in vivo, Chenopodium album; conditions: postemergence
Summary of the method: as §1

[13] = tested on: CYPSE (Flatsedge); experiment: Preemergence weed control under flooded paddy conditions; format: in vivo, Cyperus serotinus; conditions: rated 3-4 weeks after treatment
Summary of the method: as §2

[14] = tested on: ORYSAT (Rice, Tebonnet); experiment: Postemergence herbicidal evaluation; format: in vivo, Oryza sativa, (L.) Tebonnet; conditions: postemergence
Summary of the method: as §1

CCOC(=O)CN1C(=O)C(CC)SC1=Nc1cc(-n2c(=O)cc(C(F)(F)F)n(C)c2=O)c(F)cc1Cl (centres unmarked) [Compound 13, Ethyl 2-{{2-chloro-5-[3,6-dihydro-3-methyl-2,6-dioxo-4-(trifluoromethyl)-1(2H)-pyrimidinyl]-4-fluorophenyl}imino}-5-ethyl-4-oxo-3-thiazolidineacetate]
7.5: Herbicidal rating MOOVA ([3]; 0.0156 kg/ha) | ZEAMX herbicidal rating ([10]; rate 0.0625 kg/ha)
7.0: ZEAMX herbicidal rating ([10]; rate 0.0156 kg/ha) | ZEAMX herbicidal rating ([10]; rate 0.0313 kg/ha)
9.0: Herbicidal rating MOOVA ([3]; 0.0313 kg/ha) | Herbicidal rating MOOVA ([3]; 0.0625 kg/ha) | Herbicidal rating MOOVA ([3]; 0.1250 kg/ha) | Herbicidal rating MOOVA ([3]; 0.2500 kg/ha) | AMBEL preemergence herbicidal rating ([7]; rate 0.1250 kg/ha) | AMBEL preemergence herbicidal rating ([7]; rate 0.2500 kg/ha) | SETVI preemergence herbicidal rating ([9]; rate 0.0625 kg/ha) | SETVI preemergence herbicidal rating ([9]; rate 0.1250 kg/ha) | SETVI preemergence herbicidal rating ([9]; rate 0.2500 kg/ha) | CHEAL herbicidal rating ([12]; rate 0.0156 kg/ha) | CHEAL herbicidal rating ([12]; rate 0.0625 kg/ha) | CHEAL herbicidal rating ([12]; rate 0.1250 kg/ha)
0.0: CASOB herbicidal rating ([1]; rate 0.0156 kg/ha) | CASOB herbicidal rating ([1]; rate 0.0313 kg/ha) | GLXMAW preemergence herbicidal rating ([4]; rate 0.0156 kg/ha) | GLXMAW preemergence herbicidal rating ([4]; rate 0.0313 kg/ha) | Herbicidal rating CYPIR ([5]; rate 0.0313 kg/ha) | Herbicidal rating CYPIR ([5]; rate 0.0625 kg/ha) | ORYSAT preemergence herbicidal rating ([6]; rate 0.0156 kg/ha) | ORYSAT preemergence herbicidal rating ([6]; rate 0.0313 kg/ha) | ORYSAT preemergence herbicidal rating ([6]; rate 0.0625 kg/ha) | AMBEL preemergence herbicidal rating ([7]; rate 0.0156 kg/ha) | Herbicidal rating CYPSE ([8]; rate 0.0313 kg/ha) | Herbicidal rating CYPSE ([8]; rate 0.0625 kg/ha) | Herbicidal rating CYPSE ([8]; rate 0.1250 kg/ha) | Herbicidal rating CYPSE ([8]; rate 0.2500 kg/ha) | Herbicidal rating SAGPY ([11]; rate 0.0313 kg/ha) | Herbicidal rating SAGPY ([11]; rate 0.0625 kg/ha) | Herbicidal rating SAGPY ([11]; rate 0.1250 kg/ha) | Herbicidal rating SAGPY ([11]; rate 0.2500 kg/ha) | Herbicidal rating CYPSE ([13]; 0.0156 kg/ha) | Herbicidal rating CYPSE ([13]; 0.0313 kg/ha) | Herbicidal rating CYPSE ([13]; 0.0625 kg/ha) | Herbicidal rating CYPSE ([13]; 0.1250 kg/ha) | Herbicidal rating CYPSE ([13]; 0.2500 kg/ha)
1.0: GLXMAW preemergence herbicidal rating ([4]; rate 0.0625 kg/ha) | Herbicidal rating CYPIR ([5]; rate 0.2500 kg/ha)
2.0: GLXMAW preemergence herbicidal rating ([4]; rate 0.1250 kg/ha) | AMBEL preemergence herbicidal rating ([7]; rate 0.0313 kg/ha)
4.5: SETVI preemergence herbicidal rating ([9]; rate 0.0313 kg/ha)
2.5: SETVI preemergence herbicidal rating ([9]; rate 0.0156 kg/ha) | ORYSAT herbicidal rating ([14]; rate 0.0313 kg/ha) | ORYSAT herbicidal rating ([14]; rate 0.0625 kg/ha)
3.0: CASOB herbicidal rating ([1]; rate 0.0625 kg/ha) | CASOB herbicidal rating ([1]; rate 0.1250 kg/ha) | GALAP herbicidal rating ([2]; rate 0.0156 kg/ha) | GALAP herbicidal rating ([2]; rate 0.0313 kg/ha) | ORYSAT preemergence herbicidal rating ([6]; rate 0.1250 kg/ha) | ORYSAT herbicidal rating ([14]; rate 0.1250 kg/ha)
6.0: AMBEL preemergence herbicidal rating ([7]; rate 0.0625 kg/ha)
8.0: ZEAMX herbicidal rating ([10]; rate 0.1250 kg/ha) | CHEAL herbicidal rating ([12]; rate 0.0313 kg/ha)
5.0: GALAP herbicidal rating ([2]; rate 0.0625 kg/ha) | GALAP herbicidal rating ([2]; rate 0.1250 kg/ha)
0.5: Herbicidal rating CYPIR ([5]; rate 0.1250 kg/ha)
4.0: GLXMAW preemergence herbicidal rating ([4]; rate 0.2500 kg/ha) | ORYSAT preemergence herbicidal rating ([6]; rate 0.2500 kg/ha)
1.5: ORYSAT herbicidal rating ([14]; rate 0.0156 kg/ha)
